Test results: PubChem BioAssay AID2060903 (Molecular Pharmacology Branch, DTP, NCI, 2025)

System: 377384-186-R-J1-PDC complex spheroid viability
Experiment: Anticancer human tumor 377384-186-R-J1-PDC patient-derived pancreatic carcinoma cell line growth inhibition [RAS]
Settings: for viability, T/C: stronger effect = lower value
Source text: RAS pathway inhibitors in Combinations in Complex Spheroids
A high-throughput screen of multi-cell type tumor spheroids was designed to identify active combinations of RAS pathway inhibitors and targeted small molecules. Complex spheroids include a stromal component modeled by human endothelial cells (HUVEC) and fibroblasts modeled by human mesenchymal stem cells (MSCs). The concentration ranges selected for each drug and investigational agent were based upon clinically achievable concentrations if the clinical Cmax of the agent was known.
Compounds. The drugs and investigational agents: abemaciclib (NSC768073), cobimetinib (NSC768068), divarasib (GDC6063, NSC841802), docetaxel (NSC628503), GDC-1971 (RLY-1971, NSC841576), gemcitabine (NSC613327), inavolisib (NSC800729), ipatasertib (NSC767898), KB-0742 (NSC834161), MRTX-1133 (NSC836407), osimertinib (NSC779217), RMC-4630 (NSC839698), RMC-6236 (NSC851965), RMC-6291 (NSC852671), Ro-3306 (NSC812927), sapanisertib (NSC764658), SN-38 (NSC673596), staurosporine (NSC755774), SY5609 (NSC837396), and tovorafenib (DAY101, NSC766906), were obtained from the National Cancer Institute (NCI) Developmental Therapeutics Program Chemical Repository. The FDA-approved anticancer drug set is available from the NCI Developmental Therapeutics Program. […] The stock solutions were prepared in dimethyl sulfoxide (DMSO, Sigma-Aldrich, St. Louis, MO, cat. D2650) at 800-fold the tested concentration and stored at -70 degrees C prior to their use. All drugs and investigational agents were tested over a range starting from a high concentration at or near the clinical Cmax and decreasing in half-log increments. If the clinical Cmax for an agent had not been determined, the highest concentration tested was 10 microM.
Cell Culture. All cells were maintained in an incubator at 37 degrees C and 5% CO2 with 95% humidity. The PDC lines were cultured according to standard operating procedures established by the NCI PDMR. All PDCs were thawed and cultured in Matrigel-coated flasks prepared with a working solution of 1X Ham's F-12 nutrient mix, without supplementation (Invitrogen, Waltham, MA, cat. 11765054), 100 U/mL penicillin-streptomycin (Invitrogen, cat. 15140122), and 2.5% Matrigel (Corning Inc., Corning, NY, cat. 354248) for the first three passages. The 362531-283-R-J2-PDC and 782815-120-R-J1-PDC lines were cultured in 6C/Colon 1B media, which includes advanced DMEM/F-12 (Thermo Fisher Scientific, cat. 12634028), 10 mM HEPES (Thermo Fisher Scientific, cat. 15630080), 1X GlutaMAX supplement (Thermo Fisher Scientific, cat. 35050061), 0.1 mg/mL primocin (InvivoGen, San Diego, CA, cat. ant-pm-2), 10% defined fetal bovine serum, heat inactivated (HyClone Laboratories Inc., Logan, UT, cat. SH30070.03HI), 50% L-WRN conditioned media (ATCC, cat. CRL-3276), 1.25 mM N-Acetyl-L-cysteine (Sigma-Aldrich, cat. A9165), 10 mM nicotinamide (Sigma-Aldrich, cat. N0636), 1X B-27 supplement (Thermo Fisher Scientific, cat. 17504044), 1X N-2 supplement (Thermo Fisher Scientific, cat. 17502048), 50 ng/mL human EGF (Thermo Fisher Scientific, cat. PHG0311), and 10 microM Y-27632 dihydrochloride (Tocris Bioscience, cat. 1254). The K12877-001-R-J1-PDC line was cultured in 6I media, which includes all 6C/Colon 1B media plus 10 ng/mL human FGF-10 (PeproTech, cat. 100-26), 1 ng/mL human FGF-2 (PeproTech, cat. 100-18B), 1 µM prostaglandin E2 (Tocris Bioscience, cat. 2296), […] hydrocortisone (Sigma-Aldrich, cat. H4001), and […] bovine insulin (Sigma-Aldrich, cat. I6634). The K86415-001-R-J1-PDC line was cultured in 6D media, which includes all 6C/Colon 1B media components minus the L-WRN conditioned media. The 485176-168-R4-J1-PDC was cultured in PANC media, which includes all 6C/Colon 1B media plus 100 ng/mL human FGF-10 (PeproTech, cat. 100-26), 500 nM SB-431542 (Selleckchem, cat. S1067), and 10 nM gastrin (Tocris Bioscience, cat. 3006). […]
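Also: spheroids exposed to compounds for seven days before readout.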

SMILES: Cc1nc(N2CCC3(CC2)COC(C)C3N)c(CO)nc1Sc1ccnc(N)c1Cl (centres undefined)
- viability, T/C (compound 0.0316 µM): 92% [middle of 4 runs]
- viability, T/C (compound 0.1 µM): 85.4% [middle of 4 runs]
- viability, T/C (compound 0.316 µM): 83.3% [middle of 4 runs]
- viability, T/C (compound 1 µM): 85.2% [middle of 4 runs]
- viability, T/C (compound 3.16 µM): 84.6% [middle of 4 runs]
- viability, T/C (compound 10 µM): 79% [middle of 4 runs]
- IC50 (curve of compound): > 10 µM

SMILES: CC(=O)OC12COC1CC(O)C1(C)C(=O)C(O)C3=C(C)C(OC(=O)C(O)C(NC(=O)OC(C)(C)C)c4ccccc4)CC(O)(C(OC(=O)c4ccccc4)C21)C3(C)C (centres undefined) + C=CC(=O)N1CCN(c2nc(OCC3CCCN3C)nc3c(F)c(-c4nc(N)cc(C)c4C(F)(F)F)c(Cl)cc23)C(C)C1
- IC50 (curve of first compound, second compound 0.00316 µM): < 0.0316 µM
- IC50 (curve of first compound, second compound 0.01 µM): < 0.0316 µM
- IC50 (curve of first compound, second compound 0.0316 µM): < 0.0316 µM
- IC50 (curve of first compound, second compound 0.1 µM): < 0.0316 µM
- IC50 (curve of first compound, second compound 0.316 µM): < 0.0316 µM
- IC50 (curve of first compound, second compound 1 µM): < 0.0316 µM
- viability, T/C (second compound 0.00316 µM, first compound 0.0316 µM): 9.92%
- viability, T/C (second compound 0.00316 µM, first compound 0.1 µM): 11.3%
- viability, T/C (second compound 0.00316 µM, first compound 0.316 µM): 8.82%
- viability, T/C (second compound 0.00316 µM, first compound 1 µM): 12.3%
- viability, T/C (second compound 0.00316 µM, first compound 3.16 µM): 11.7%
- viability, T/C (second compound 0.00316 µM, first compound 10 µM): 14.2%
- viability, T/C (second compound 0.01 µM, first compound 0.0316 µM): 8.32%
- viability, T/C (second compound 0.01 µM, first compound 0.1 µM): 8.59%
- viability, T/C (second compound 0.01 µM, first compound 0.316 µM): 9.28%
- viability, T/C (second compound 0.01 µM, first compound 1 µM): 10.8%
- viability, T/C (second compound 0.01 µM, first compound 3.16 µM): 14.4%
- viability, T/C (second compound 0.01 µM, first compound 10 µM): 11.4%
- viability, T/C (second compound 0.0316 µM, first compound 0.0316 µM): 8.72%
- viability, T/C (second compound 0.0316 µM, first compound 0.1 µM): 8.61%
- viability, T/C (second compound 0.0316 µM, first compound 0.316 µM): 9.75%
- viability, T/C (second compound 0.0316 µM, first compound 1 µM): 12.3%
- viability, T/C (second compound 0.0316 µM, first compound 3.16 µM): 13.2%
- viability, T/C (second compound 0.0316 µM, first compound 10 µM): 14%
- viability, T/C (second compound 0.1 µM, first compound 0.0316 µM): 9.31%
- viability, T/C (second compound 0.1 µM, first compound 0.1 µM): 9.36%
- viability, T/C (second compound 0.1 µM, first compound 0.316 µM): 9.95%
- viability, T/C (second compound 0.1 µM, first compound 1 µM): 12.9%
- viability, T/C (second compound 0.1 µM, first compound 3.16 µM): 12.4%
- viability, T/C (second compound 0.1 µM, first compound 10 µM): 9.63%
- viability, T/C (second compound 0.316 µM, first compound 0.0316 µM): 9.62%
- viability, T/C (second compound 0.316 µM, first compound 0.1 µM): 7.81%
- viability, T/C (second compound 0.316 µM, first compound 0.316 µM): 8.61%
- viability, T/C (second compound 0.316 µM, first compound 1 µM): 10.3%
- viability, T/C (second compound 0.316 µM, first compound 3.16 µM): 13.6%
- viability, T/C (second compound 0.316 µM, first compound 10 µM): 14.5%
- viability, T/C (second compound 1 µM, first compound 0.0316 µM): 9.06%
- viability, T/C (second compound 1 µM, first compound 0.1 µM): 11.8%
- viability, T/C (second compound 1 µM, first compound 0.316 µM): 13.3%
- viability, T/C (second compound 1 µM, first compound 1 µM): 12.9%
- viability, T/C (second compound 1 µM, first compound 3.16 µM): 12.3%
- viability, T/C (second compound 1 µM, first compound 10 µM): 14.5%
